Data taken from patent US5047397A, “Linear analogs of atrial natriuretic peptides” (California Biotechnology Inc., priority 1988, dated 1991).
*1 amine or outer side, *2 acyl side, *3 side chain or, on linkers, in order; H or OH if unused. Where a SMILES comes first, the peptide text is derived from it. Bridges are numbered along the chain shown (N, C = ends). Where no end group is shown, it is not given here. [ ]: non-standard residue; d: D form. The star is where a group is joined. X2 = N=C(N)NCCC[C@@H](C(=O)[*:2])N(CCc1ccc(N[*:3])cc1)[*:1]; Acetyl(2-naphthyloxy) = O=C(COc1ccc2ccccc2c1)*; Acetyl(2-naphthyl) = O=C(Cc1ccc2ccccc2c1)*; NH(2S-methylbutyl) = CC[C@H](C)CN*; 2Naphthoyl = O=C(c1ccc2ccccc2c1)*; X1 = O=C(Cc1ccc(N[*:1])cc1)[*:2]; Orn = NCCC[C@H](N)C(=O)O; X6 = O=C(C(Br)c1ccccc1)*; X9 = O=C(C(Cl)c1ccccc1)*; Inp = O=C(O)C1CCNCC1; BrAc = O=C(CBr)*

Target: T1, specific ANP receptor sites on BASM or BAE cells (Bos taurus, UniProt P10730)
T1 construct: specific receptor sites on BASM or BAE cells; endogenous in cells; host or cells: cultured BASM and BAE cells
T1 sequence (P10730 42-537): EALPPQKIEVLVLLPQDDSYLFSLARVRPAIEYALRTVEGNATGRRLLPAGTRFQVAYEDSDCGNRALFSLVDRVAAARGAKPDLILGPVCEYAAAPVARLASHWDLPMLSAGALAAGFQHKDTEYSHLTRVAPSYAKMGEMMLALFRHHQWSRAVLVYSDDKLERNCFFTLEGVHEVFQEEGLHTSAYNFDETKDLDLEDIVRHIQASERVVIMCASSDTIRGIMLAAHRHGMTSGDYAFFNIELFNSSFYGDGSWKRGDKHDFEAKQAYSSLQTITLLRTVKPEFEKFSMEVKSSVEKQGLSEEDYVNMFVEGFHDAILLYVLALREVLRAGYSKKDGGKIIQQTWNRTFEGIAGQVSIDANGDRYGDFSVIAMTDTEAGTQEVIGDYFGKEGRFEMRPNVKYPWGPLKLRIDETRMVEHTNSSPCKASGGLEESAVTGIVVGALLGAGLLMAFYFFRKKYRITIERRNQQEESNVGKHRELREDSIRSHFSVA
Assay: Competitive displacement receptor binding of (125I)-rANP(126-150) on cultured cells
Design: species or system bovine
Details: not given
Text: Analogous "competitive displacement" receptor binding assays are considered commonplace in the art for examining specific ligand-receptor interactions.
Assuming these ANP analogs act at one or more ANP receptor sites, then increased receptor affinity should reflect increased biological potency.

Compound	receptor binding / activity as judged by Ki, in words
GGRIDRIGAA-NH2 [AP105, G--G--R--I--D--R--I--G--A--A--NH2]	do not
RIDRIG-NH2 [AP125, R--I--D--R--I--G--NH2]	do not

Same assay, conditions: concentration of unlabeled peptide displacing 50% of maximal binding of 0.5 nM (125I)-rANP(126-150); BASM or BAE cells

Compound	Ki(app)
CC[C@H](C)[C@@H]1NC(=O)[C@H](CCCNC(=N)N)NC(=O)[C@H](CC(=O)O)NC(=O)[C@H]([C@@H](C)CC)NC(=O)[C@H](CCCNC(=N)N)NC(=O)[C@@H](NC(=O)[C@H](CO)NC(=O)[C@H](CO)NC(=O)[C@@H](N)CCCNC(=N)N)CSSC[C@@H](C(=O)N[C@@H](CC(N)=O)C(=O)N[C@@H](CO)C(=O)N[C@@H](Cc2ccccc2)C(=O)N[C@@H](CCCNC(=N)N)C(=O)N[C@@H](Cc2ccc(O)cc2)C(=O)O)NC(=O)CNC(=O)[C@H](CC(C)C)NC(=O)CNC(=O)[C@H](CO)NC(=O)[C@H](CCC(N)=O)NC(=O)[C@H](C)NC(=O)CNC1=O [AP25, R--S--S--C--R--I--D--R--I--G--A--Q--S--G--L--G--C--N--S--F--R--Y] (H-RSSCRIDRIGAQSGLGCNSFRY-OH; disulfide 4-17)	8.62 nM
CC[C@H](C)[C@H](NC(=O)[C@H](CCCNC(=N)N)NC(=O)[C@H](CC(=O)O)NC(=O)[C@@H](NC(=O)[C@H](CCCCN)NC(=O)Cc1ccc(NC(=O)Cc2ccc3ccccc3c2)cc1)[C@@H](C)CC)C(N)=O [AP800] ({Acetyl(2-naphthyl)}-[X1]KIDRI-NH2)	2.90 nM
CC[C@H](C)[C@H](NC(=O)[C@H](CCCNC(=N)N)NC(=O)[C@H](CC(=O)O)NC(=O)[C@@H](NC(=O)[C@H](CCCCNC(C)=O)NC(=O)Cc1ccc(NC(=O)COc2ccc3ccccc3c2)cc1)[C@@H](C)CC)C(N)=O [AP801] ({Acetyl(2-naphthyloxy)}-[X1]K(Ac)IDRI-NH2)	3.95 nM
CC[C@H](C)[C@H](NC(=O)[C@H](CCCNC(=N)N)NC(=O)[C@H](CC(=O)O)NC(=O)[C@@H](NC(=O)[C@H](CCCCN)NC(=O)Cc1ccc(NC(=O)c2ccc3ccccc3c2)cc1)[C@@H](C)CC)C(N)=O [AP802] (2Naphthoyl-[X1]KIDRI-NH2)	8.7 nM
CC[C@H](C)[C@H](NC(=O)[C@H](CCCNC(=N)N)NC(=O)[C@H](CC(=O)O)NC(=O)[C@@H](NC[C@H](CCCCN)NC(=O)Cc1ccc(NC(=O)Cc2ccc3ccccc3c2)cc1)[C@@H](C)CC)C(N)=O [AP806]	14.0 nM
CC[C@H](C)[C@H](NC[C@H](CCCCN)NC(=O)[C@H](CC(=O)O)NC(=O)[C@@H](NC(=O)[C@H](CCCNC(=N)N)NC(=O)Cc1ccc(NC(=O)Cc2ccc3ccccc3c2)cc1)[C@@H](C)CC)C(N)=O [AP807]	112 nM
CC[C@H](C)[C@H](NC(=O)[C@H](CCCNC(=N)N)NC(=O)[C@H](CC(=O)O)NC(=O)[C@@H](NC[C@H](CCCCN)NC(=O)Cc1ccc(NC(=O)COc2ccc3ccccc3c2)cc1)[C@@H](C)CC)C(N)=O [AP808]	98.9 nM
CC[C@H](C)[C@H](NC(=O)[C@H](CCCNC(=N)N)NC(=O)[C@H](CC(=O)O)NC(=O)[C@@H](NC[C@H](CCCCN)NC(=O)Cc1ccc(NC(=O)c2ccc3ccccc3c2)cc1)[C@@H](C)CC)C(N)=O [AP809]	14.7 nM
CC[C@H](C)CNC(=O)[C@H](CCCNC(=N)N)NC(=O)[C@H](CC(=O)O)NC(=O)[C@@H](NC(=O)[C@H](CCCNC(=N)N)NC(=O)C1CCN(C(=O)COc2ccc3ccccc3c2)CC1)[C@@H](C)CC [AP810] ({Acetyl(2-naphthyloxy)-Inp}-RIDR-{NH(2S-methylbutyl)})	14.1 nM
CC[C@H](C)CNC(=O)[C@H](CCCNC(=N)N)NC(=O)[C@H](CC(=O)O)NC(=O)[C@@H](NC(=O)[C@H](CCCNC(=N)N)NC(=O)Cc1ccc(NC(=O)c2ccc3ccccc3c2)cc1)[C@@H](C)CC [AP811] (2Naphthoyl-[X1]RIDR-{NH(2S-methylbutyl)})	2.52 nM
CC[C@H](C)CNC(=O)[C@H](CCCNC(=N)N)NC(=O)[C@H](CC(=O)O)NC(=O)[C@@H](NC(=O)[C@H](CCCNC(=N)N)NCC1CCN(C(=O)COc2ccc3ccccc3c2)CC1)[C@@H](C)CC [AP812]	32.0 nM
CC[C@H](C)CNC(=O)[C@H](CCCNC(=N)N)NC(=O)[C@H](CC(=O)O)NC(=O)[C@@H](NC(=O)[C@H](CCCNC(=N)N)NC(=O)Cc1ccc(NC(=O)COc2ccc3ccccc3c2)cc1)[C@@H](C)CC [AP813] ({Acetyl(2-naphthyloxy)}-[X1]RIDR-{NH(2S-methylbutyl)})	56.0 nM
CC[C@H](C)CNC(=O)[C@H](CCCNC(=N)N)NC(=O)[C@H](CC(=O)O)NC(=O)[C@@H](NC[C@H](CCCCN)NC(=O)Cc1ccc(NC(=O)c2ccc3ccccc3c2)cc1)[C@@H](C)CC [AP814]	33.0 nM
CC[C@H](C)[C@H](NC(=O)[C@H](CCCNC(=N)N)NC(=O)[C@H](CC(=O)O)NC(=O)[C@@H](NC(=O)[C@H](CCCN)NC(=O)Cc1ccc(NC(=O)COc2ccc3ccccc3c2)cc1)[C@@H](C)CC)C(N)=O [AP815] ({Acetyl(2-naphthyloxy)}-[X1][Orn]IDRI-NH2)	10.0 nM
CC[C@H](C)[C@H](NC(=O)[C@H](CCCNC(=N)N)NC(=O)[C@H](CC(=O)O)NC(=O)[C@@H](NC(=O)[C@H](CCCNC(=N)N)NCCc1ccc(NC(=O)COc2ccc3ccccc3c2)cc1)[C@@H](C)CC)C(N)=O [AP816] (H-[X2](Acetyl(2-naphthyloxy))IDRI-NH2)	17.4 nM
CC[C@H](C)[C@H](NC(=O)[C@H](CCCNC(=N)N)NC(=O)[C@H](CC(=O)O)NC(=O)[C@@H](NC(=O)[C@H](CCCNC(=N)N)NC(=O)Cc1ccc(NC(=O)C(Cl)c2ccccc2)cc1)[C@@H](C)CC)C(N)=O (some centres unmarked) [AP817] (X9-[X1]RIDRI-NH2)	21.1 nM
CC[C@H](C)[C@H](NC(=O)[C@H](CCCNC(=N)N)NC(=O)[C@H](CC(=O)O)NC(=O)[C@@H](NC(=O)[C@H](CCCNC(=N)N)NC(=O)Cc1ccc(NC(=O)C(Br)c2ccccc2)cc1)[C@@H](C)CC)C(N)=O (some centres unmarked) [AP818] (X6-[X1]RIDRI-NH2)	20.5 nM
CC[C@H](C)[C@H](NC(=O)[C@H](CCCNC(=N)N)NC(=O)[C@H](CC(=O)O)NC(=O)[C@@H](NC(=O)[C@H](CCCNC(=N)N)NC(=O)Cc1ccc(NC(=O)[C@H](Cc2ccccc2)NC(=O)CBr)cc1)[C@@H](C)CC)C(N)=O [AP819] (BrAc-F[X1]RIDRI-NH2)	3.8 nM
AFGGRIDRI-NH2 [AP103, A--F--G--G--R--I--D--R--I--NH2]	12.42 nM
AFGGRIDRIG-NH2 [AP102, A--F--G--G--R--I--D--R--I--G--NH2]	14.04 nM
AFGGRIDRIGY-NH2 [AP176, A--F--G--G--R--I--D--R--I--G--Y--NH2]	6.65 nM
FGGRIDRI-NH2 [AP119, F--G--G--R--I--D--R--I--NH2]	8.9 nM
FGGRIDRIGA-NH2 [AP126, F--G--G--R--I--D--R--I--G--A--NH2]	2.16 nM
FGGRIDRIGAA-NH2 [AP104, F--G--G--R--I--D--R--I--G--A--A--NH2]	2.50 nM
GGRIDRIGAA-NH2 [AP105, G--G--R--I--D--R--I--G--A--A--NH2]	> 200 nM
RIDRIG-NH2 [AP125, R--I--D--R--I--G--NH2]	> 200 nM
YAFGGRIDRIGA-NH2 [AP175, Y--A--F--G--G--R--I--D--R--I--G--A--NH2]	5.94 nM

Same assay, conditions: increasing concentrations of unlabeled peptide; BASM cells

Compound	prevention of (125I)-rANP(126-150) binding to BASM cell-associated receptors (FIG. 2)
CC[C@H](C)[C@@H]1NC(=O)[C@H](CCCNC(=N)N)NC(=O)[C@H](CC(=O)O)NC(=O)[C@H]([C@@H](C)CC)NC(=O)[C@H](CCCNC(=N)N)NC(=O)[C@@H](NC(=O)[C@H](CO)NC(=O)[C@H](CO)NC(=O)[C@@H](N)CCCNC(=N)N)CSSC[C@@H](C(=O)N[C@@H](CC(N)=O)C(=O)N[C@@H](CO)C(=O)N[C@@H](Cc2ccccc2)C(=O)N[C@@H](CCCNC(=N)N)C(=O)N[C@@H](Cc2ccc(O)cc2)C(=O)O)NC(=O)CNC(=O)[C@H](CC(C)C)NC(=O)CNC(=O)[C@H](CO)NC(=O)[C@H](CCC(N)=O)NC(=O)[C@H](C)NC(=O)CNC1=O [AP25, R--S--S--C--R--I--D--R--I--G--A--Q--S--G--L--G--C--N--S--F--R--Y] (H-RSSCRIDRIGAQSGLGCNSFRY-OH; disulfide 4-17)	effectively prevent

Same assay, conditions: specificity table, unrelated peptide hormones; unit inferred

Compound	Ki(app)
CC[C@H](C)[C@H](NC(=O)[C@H](Cc1ccc(O)cc1)NC(=O)[C@@H](NC(=O)[C@H](CCCNC(=N)N)NC(=O)[C@@H](N)CC(=O)O)C(C)C)C(=O)N[C@@H](Cc1c[nH]cn1)C(=O)N1CCC[C@H]1C(=O)N[C@@H](Cc1ccccc1)C(=O)O [angiotensin II, reference compound]	> 500 nM

System: anesthetized rats
Assay: Diuresis in anesthetized rats
Format: in vivo, rat
Details: infused at 5 mcg/min via femoral vein; versus baseline; FIG. 3
Method: In one set of examples, cannulae were placed in the left and right ureters and femoral vein of anesthetized rats and urine was collected from the ureters. Analog peptides were administered via the femoral vein. Prior to infusing the analog peptides, saline was infused for 30 minutes, urine was collected for 6 five-minute baseline periods and urine volume was determined gravimetrically. Following these baseline collection periods, various analog peptides were infused for 30 or 60 minutes and urine volume was measured in five-minute periods during infusion and for 60 minutes following infusion (at which time rats were returned to saline). Data was examined by averaging urine flow rates for six five-minute baseline control periods immediately preceding infusion, and comparing values during and after administration of peptides with the "baseline" control values. Responses to peptides are thus evaluated and plotted as the percent of baseline control responses. Specific examples are shown in FIGS. 3A-H. The error bars at the beginning of the graphs represent baseline values +standard deviations. Responses to peptides that are substantially above baseline ±SD can thus be interpreted as being statistically significant increases.

Compound	urine flow rate (urine volume), diuretic response
CC[C@H](C)[C@@H]1NC(=O)[C@H](CCCNC(=N)N)NC(=O)[C@H](CC(=O)O)NC(=O)[C@H]([C@@H](C)CC)NC(=O)[C@H](CCCNC(=N)N)NC(=O)[C@@H](NC(=O)[C@H](CO)NC(=O)[C@H](CO)NC(=O)[C@@H](N)CCCNC(=N)N)CSSC[C@@H](C(=O)N[C@@H](CC(N)=O)C(=O)N[C@@H](CO)C(=O)N[C@@H](Cc2ccccc2)C(=O)N[C@@H](CCCNC(=N)N)C(=O)N[C@@H](Cc2ccc(O)cc2)C(=O)O)NC(=O)CNC(=O)[C@H](CC(C)C)NC(=O)CNC(=O)[C@H](CO)NC(=O)[C@H](CCC(N)=O)NC(=O)[C@H](C)NC(=O)CNC1=O [AP25, R--S--S--C--R--I--D--R--I--G--A--Q--S--G--L--G--C--N--S--F--R--Y] (H-RSSCRIDRIGAQSGLGCNSFRY-OH; disulfide 4-17)	significantly increased
